Experimental data taken from PubChem BioAssay (NCI).
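Results reflect a 48-hour exposure of cells in 96-well plates to compound at five concentrations. Abbreviation: GI50, concentration required for 50% inhibition of growth. At the TGI there is no net growth.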

Experiments:
Assay in all cases: NCI-60 cell line screen, 48 h
IGROV1 ovarian = test system: IGROV1 ovarian
UO-31 renal = test system: UO-31 renal
A498 renal = test system: A498 renal
SW-620 colon = test system: SW-620 colon
SF-539 CNS = test system: SF-539 CNS
NCI-H460 lung = test system: NCI-H460 lung
SK-MEL-5 melanoma = test system: SK-MEL-5 melanoma
KM12 colon = test system: KM12 colon
MCF7 breast = test system: MCF7 breast
OVCAR-4 ovarian = test system: OVCAR-4 ovarian
SK-MEL-28 melanoma = test system: SK-MEL-28 melanoma
UACC-62 melanoma = test system: UACC-62 melanoma
SNB-19 CNS = test system: SNB-19 CNS
NCI-H23 lung = test system: NCI-H23 lung
SN12C renal = test system: SN12C renal
HCT-15 colon = test system: HCT-15 colon
T-47D breast = test system: T-47D breast
HOP-62 NSCLC = test system: HOP-62 NSCLC
MALME-3M melanoma = test system: MALME-3M melanoma
SR leukemia = test system: SR leukemia
MDA-MB-231 breast = test system: MDA-MB-231 breast
A549 NSCLC = test system: A549 NSCLC
NCI-H522 lung = test system: NCI-H522 lung
HOP-92 NSCLC = test system: HOP-92 NSCLC
NCI/ADR-RES ovarian = test system: NCI/ADR-RES ovarian
SF-268 CNS = test system: SF-268 CNS
EKVX NSCLC = test system: EKVX NSCLC
OVCAR-5 ovarian = test system: OVCAR-5 ovarian
MOLT-4 leukemia = test system: MOLT-4 leukemia
BT-549 breast = test system: BT-549 breast
ACHN renal = test system: ACHN renal
HL-60(TB) leukemia = test system: HL-60(TB) leukemia
SF-295 CNS = test system: SF-295 CNS
TK-10 renal = test system: TK-10 renal
SK-OV-3 ovarian = test system: SK-OV-3 ovarian
OVCAR-8 ovarian = test system: OVCAR-8 ovarian
SNB-75 CNS = test system: SNB-75 CNS
HCT-116 colon = test system: HCT-116 colon
CCRF-CEM leukemia = test system: CCRF-CEM leukemia
RPMI-8226 leukemia = test system: RPMI-8226 leukemia
HS 578T breast = test system: HS 578T breast
CAKI-1 renal = test system: CAKI-1 renal
SK-MEL-2 melanoma = test system: SK-MEL-2 melanoma
M14 melanoma = test system: M14 melanoma
U251 CNS = test system: U251 CNS
RXF 393 renal = test system: RXF 393 renal
PC-3 prostate = test system: PC-3 prostate
UACC-257 melanoma = test system: UACC-257 melanoma
DU-145 prostate = test system: DU-145 prostate
HT29 colon = test system: HT29 colon
OVCAR-3 ovarian = test system: OVCAR-3 ovarian
MDA-MB-435 = test system: MDA-MB-435
NCI-H226 lung = test system: NCI-H226 lung
LOX IMVI melanoma = test system: LOX IMVI melanoma
K-562 leukemia = test system: K-562 leukemia
HCC-2998 colon = test system: HCC-2998 colon
COLO 205 colon = test system: COLO 205 colon
786-0 renal = test system: 786-0 renal

SMILES: c1ccc(-c2nnc(-c3ccccn3)s2)nc1
- GI50 (IGROV1 ovarian): 27.3 µM
- TGI (IGROV1 ovarian): > 100 µM
- GI50 (UO-31 renal): 22.3 µM
- TGI (UO-31 renal): > 100 µM
- GI50 (A498 renal): > 100 µM
- TGI (A498 renal): > 100 µM
- GI50 (SW-620 colon): > 100 µM
- TGI (SW-620 colon): > 100 µM
- GI50 (SF-539 CNS): > 100 µM
- TGI (SF-539 CNS): > 100 µM
- GI50 (NCI-H460 lung): > 100 µM
- TGI (NCI-H460 lung): > 100 µM
- GI50 (SK-MEL-5 melanoma): > 100 µM
- TGI (SK-MEL-5 melanoma): > 100 µM
- GI50 (KM12 colon): > 100 µM
- TGI (KM12 colon): > 100 µM
- GI50 (MCF7 breast): 0.788 µM
- TGI (MCF7 breast): > 100 µM
- GI50 (OVCAR-4 ovarian): > 100 µM
- TGI (OVCAR-4 ovarian): > 100 µM
- GI50 (SK-MEL-28 melanoma): > 100 µM
- TGI (SK-MEL-28 melanoma): > 100 µM
- GI50 (UACC-62 melanoma): > 100 µM
- TGI (UACC-62 melanoma): > 100 µM
- GI50 (SNB-19 CNS): > 100 µM
- TGI (SNB-19 CNS): > 100 µM
- GI50 (NCI-H23 lung): > 100 µM
- TGI (NCI-H23 lung): > 100 µM
- GI50 (SN12C renal): > 100 µM
- TGI (SN12C renal): > 100 µM
- GI50 (HCT-15 colon): 83.7 µM
- TGI (HCT-15 colon): > 100 µM
- GI50 (T-47D breast): 5.32 µM
- TGI (T-47D breast): > 100 µM
- GI50 (HOP-62 NSCLC): > 100 µM
- TGI (HOP-62 NSCLC): > 100 µM
- GI50 (MALME-3M melanoma): > 100 µM
- TGI (MALME-3M melanoma): > 100 µM
- GI50 (SR leukemia): > 100 µM
- TGI (SR leukemia): > 100 µM
- GI50 (MDA-MB-231 breast): 72.5 µM
- TGI (MDA-MB-231 breast): > 100 µM
- GI50 (A549 NSCLC): > 100 µM
- TGI (A549 NSCLC): > 100 µM
- GI50 (NCI-H522 lung): > 100 µM
- TGI (NCI-H522 lung): > 100 µM
- GI50 (HOP-92 NSCLC): 7.46 µM
- TGI (HOP-92 NSCLC): > 100 µM
- GI50 (NCI/ADR-RES ovarian): > 100 µM
- TGI (NCI/ADR-RES ovarian): > 100 µM
- GI50 (SF-268 CNS): > 100 µM
- TGI (SF-268 CNS): > 100 µM
- GI50 (EKVX NSCLC): > 100 µM
- TGI (EKVX NSCLC): > 100 µM
- GI50 (OVCAR-5 ovarian): > 100 µM
- TGI (OVCAR-5 ovarian): > 100 µM
- GI50 (MOLT-4 leukemia): > 100 µM
- TGI (MOLT-4 leukemia): > 100 µM
- GI50 (BT-549 breast): > 100 µM
- TGI (BT-549 breast): > 100 µM
- GI50 (ACHN renal): > 100 µM
- TGI (ACHN renal): > 100 µM
- GI50 (HL-60(TB) leukemia): > 100 µM
- TGI (HL-60(TB) leukemia): > 100 µM
- GI50 (SF-295 CNS): > 100 µM
- TGI (SF-295 CNS): > 100 µM
- GI50 (TK-10 renal): > 100 µM
- TGI (TK-10 renal): > 100 µM
- GI50 (SK-OV-3 ovarian): > 100 µM
- TGI (SK-OV-3 ovarian): > 100 µM
- GI50 (OVCAR-8 ovarian): > 100 µM
- TGI (OVCAR-8 ovarian): > 100 µM
- GI50 (SNB-75 CNS): 72.9 µM
- TGI (SNB-75 CNS): > 100 µM
- GI50 (HCT-116 colon): > 100 µM
- TGI (HCT-116 colon): > 100 µM
- GI50 (CCRF-CEM leukemia): > 100 µM
- TGI (CCRF-CEM leukemia): > 100 µM
- GI50 (RPMI-8226 leukemia): > 100 µM
- TGI (RPMI-8226 leukemia): > 100 µM
- GI50 (HS 578T breast): > 100 µM
- TGI (HS 578T breast): > 100 µM
- GI50 (CAKI-1 renal): > 100 µM
- TGI (CAKI-1 renal): > 100 µM
- GI50 (SK-MEL-2 melanoma): > 100 µM
- TGI (SK-MEL-2 melanoma): > 100 µM
- GI50 (M14 melanoma): > 100 µM
- TGI (M14 melanoma): > 100 µM
- GI50 (U251 CNS): > 100 µM
- TGI (U251 CNS): > 100 µM
- GI50 (RXF 393 renal): > 100 µM
- TGI (RXF 393 renal): > 100 µM
- GI50 (PC-3 prostate): > 100 µM
- TGI (PC-3 prostate): > 100 µM
- GI50 (UACC-257 melanoma): > 100 µM
- TGI (UACC-257 melanoma): > 100 µM
- GI50 (DU-145 prostate): > 100 µM
- TGI (DU-145 prostate): > 100 µM
- GI50 (HT29 colon): > 100 µM
- TGI (HT29 colon): > 100 µM
- GI50 (OVCAR-3 ovarian): > 100 µM
- TGI (OVCAR-3 ovarian): > 100 µM
- GI50 (MDA-MB-435): > 100 µM
- TGI (MDA-MB-435): > 100 µM
- GI50 (NCI-H226 lung): > 100 µM
- TGI (NCI-H226 lung): > 100 µM
- GI50 (LOX IMVI melanoma): > 100 µM
- TGI (LOX IMVI melanoma): > 100 µM
- GI50 (K-562 leukemia): > 100 µM
- TGI (K-562 leukemia): > 100 µM
- GI50 (HCC-2998 colon): > 100 µM
- TGI (HCC-2998 colon): > 100 µM
- GI50 (COLO 205 colon): > 100 µM
- TGI (COLO 205 colon): > 100 µM
- GI50 (786-0 renal): > 100 µM
- TGI (786-0 renal): > 100 µM
